Article PMC7680425 (Cell chemical biology, 2020)

What was measured:
PfROM4 [1] = experiment: Merozoite adhesin shedding assay: EBA175 shedding by PfROM4; type: cell-based, P. falciparum; conditions: 10μM RiKa (p=0.0014) or 25mM EGTA, 90 min at 37°C
PfROM4 [2] = type: cell-based, P. falciparum; conditions: transfected HEK293T cells

Molecule	shedding of EBA175 by PfROM4 from free merozoites (PfROM4 [1])	inhibition of EBA175 processing by PfROM4 (PfROM4 [2])
O=C(O)CN(CCOCCOCCN(CC(=O)O)CC(=O)O)CC(=O)O [EGTA]	did not inhibit	
Ac-KRFRSMQYSA-CHO (Ac-KRFRSMQYSA-aldehyde; SMILES CSCC[C@H](NC(=O)[C@H](CO)NC(=O)[C@H](CCCNC(=N)N)NC(=O)[C@H](Cc1ccccc1)NC(=O)[C@H](CCCNC(=N)N)NC(=O)[C@H](CCCCN)NC(C)=O)C(=O)N[C@@H](CCC(N)=O)C(=O)N[C@@H](Cc1ccc(O)cc1)C(=O)N[C@@H](CO)C(=O)N[C@@H](C)C=O)		abrogated PfROM4 inhibition
